Laboratory results published in PubChem BioAssay (NCI).
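Protocol summary: plate cells (96-well), add compound at 5 concentrations, incubate 48 h, interpolate endpoints linearly. Definition used: TGI = concentration required for complete inhibition of growth.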

Assays:
Assay in all cases: NCI tumour cell line growth inhibition, 48 h
[1] = system: 786-0 renal
[2] = system: A498 renal
[3] = system: A549 NSCLC
[4] = system: ACHN renal
[5] = system: BT-549 breast
[6] = system: CAKI-1 renal
[7] = system: CCRF-CEM leukemia
[8] = system: COLO 205 colon
[9] = system: DU-145 prostate
[10] = system: EKVX NSCLC
[11] = system: HCT-116 colon
[12] = system: HCT-15 colon
[13] = system: HL-60(TB) leukemia
[14] = system: HOP-62 NSCLC
[15] = system: HOP-92 NSCLC
[16] = system: HS 578T breast
[17] = system: HT29 colon
[18] = system: IGROV1 ovarian
[19] = system: K-562 leukemia
[20] = system: KM12 colon
[21] = system: LOX IMVI melanoma
[22] = system: M14 melanoma
[23] = system: MALME-3M melanoma
[24] = system: MCF7 breast
[25] = system: MDA-MB-231 breast
[26] = system: MDA-MB-435
[27] = system: MDA-N
[28] = system: MOLT-4 leukemia
[29] = system: NCI-H226 lung
[30] = system: NCI-H23 lung
[31] = system: NCI-H460 lung
[32] = system: NCI-H522 lung
[33] = system: NCI/ADR-RES ovarian
[34] = system: OVCAR-3 ovarian
[35] = system: OVCAR-4 ovarian
[36] = system: OVCAR-5 ovarian
[37] = system: OVCAR-8 ovarian
[38] = system: PC-3 prostate
[39] = system: RPMI-8226 leukemia
[40] = system: RXF 393 renal
[41] = system: SF-268 CNS
[42] = system: SF-295 CNS
[43] = system: SF-539 CNS
[44] = system: SK-MEL-2 melanoma
[45] = system: SK-MEL-28 melanoma
[46] = system: SK-MEL-5 melanoma
[47] = system: SK-OV-3 ovarian
[48] = system: SN12C renal
[49] = system: SNB-19 CNS
[50] = system: SNB-75 CNS
[51] = system: SW-620 colon
[52] = system: T-47D breast
[53] = system: TK-10 renal
[54] = system: U251 CNS
[55] = system: UACC-257 melanoma
[56] = system: UACC-62 melanoma
[57] = system: UO-31 renal

With Cc1ccc(I)cc1N=C=S the TGI [1] was 60 µM, the TGI [2] was 48.8 µM and the TGI [3] was 82.3 µM. The TGI [4] was 54.8 µM, the TGI [5] was 30.5 µM and the TGI [6] was 71.2 µM. For the same compound, the TGI [7] was 57.2 µM, the TGI [8] was 34 µM and the TGI [9] was 96.1 µM. It also gave a TGI [10] of 63.4 µM, a TGI [11] of 91.9 µM and a TGI [12] of 34.8 µM. It also gave a TGI [13] of 44.3 µM, a TGI [14] of 59.8 µM and a TGI [15] greater than 100 µM. It also gave a TGI [16] of 91.8 µM, a TGI [17] of 53 µM and a TGI [18] greater than 100 µM. For the same compound, the TGI [19] was 54.7 µM, the TGI [20] was 36.9 µM and the TGI [21] was 53.8 µM. It also gave a TGI [22] of 38.7 µM, a TGI [23] of 61.5 µM and a TGI [24] of 54.4 µM. For the same compound, the TGI [25] was 71.1 µM, the TGI [26] was 73.7 µM and the TGI [27] was 86.5 µM. The TGI [28] was 43.8 µM, the TGI [29] was 39.9 µM and the TGI [30] was 42.1 µM. For the same compound, the TGI [31] was 52.1 µM, the TGI [32] was 36.6 µM and the TGI [33] was 63.3 µM. It also gave a TGI [34] greater than 100 µM, a TGI [35] greater than 100 µM and a TGI [36] of 50.4 µM. For the same compound, the TGI [37] was greater than 100 µM, the TGI [38] was 51.4 µM and the TGI [39] was 54.1 µM. The TGI [40] was 40.6 µM, the TGI [41] was 75.8 µM and the TGI [42] was 62.8 µM. For the same compound, the TGI [43] was 35.4 µM, the TGI [44] was 38.6 µM and the TGI [45] was 39.2 µM. For the same compound, the TGI [46] was 30.1 µM, the TGI [47] was greater than 100 µM and the TGI [48] was 49.3 µM. The TGI [49] was 70.1 µM, the TGI [50] was 52.7 µM and the TGI [51] was greater than 100 µM. It also gave a TGI [52] of 42.5 µM, a TGI [53] of 88.7 µM and a TGI [54] of 48.6 µM. It also gave a TGI [55] of 63.9 µM, a TGI [56] of 31.6 µM and a TGI [57] of 33 µM.
